pKi: −log10 of the molar value. “Also recorded” adds a separate entry of the source. Where two headings read alike, the source gives them in different places.
Molecular target: T1, CYP1A2 (Homo sapiens, UniProt P05177)
T1 sequence (P05177 1-516): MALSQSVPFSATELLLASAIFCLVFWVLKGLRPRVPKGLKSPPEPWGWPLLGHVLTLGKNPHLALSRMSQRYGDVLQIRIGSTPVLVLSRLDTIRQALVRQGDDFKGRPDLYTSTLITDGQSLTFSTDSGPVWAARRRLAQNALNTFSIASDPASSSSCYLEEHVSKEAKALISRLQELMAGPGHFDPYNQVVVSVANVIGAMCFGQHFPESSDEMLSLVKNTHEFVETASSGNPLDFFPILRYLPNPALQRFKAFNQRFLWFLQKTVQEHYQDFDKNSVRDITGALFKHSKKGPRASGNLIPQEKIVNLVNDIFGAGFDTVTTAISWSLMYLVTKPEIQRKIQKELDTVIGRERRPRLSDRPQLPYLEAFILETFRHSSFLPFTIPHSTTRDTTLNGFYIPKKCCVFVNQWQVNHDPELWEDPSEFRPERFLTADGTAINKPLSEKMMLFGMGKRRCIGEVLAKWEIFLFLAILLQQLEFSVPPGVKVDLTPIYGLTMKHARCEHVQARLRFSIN
Test: CYP1A2-catalyzed phenacetin O-deethylation inhibition in pooled human liver microsomes (LC-MS/MS)
Type: in vitro ADME
Method: The inhibitory potential (IC50 values) of honokiol on CYP activities was evaluated in pooled human liver microsomes using liquid chromatography-tandem mass spectrometry (LC-MS/MS). […] Honokiol was dissolved in acetonitrile. […] After a 3 min preincubation at 37 °C, the reactions were initiated by addition of an NADP generating system and incubated for 15 min at 37 °C in a shaking water bath. The reaction was then stopped by placement of the tubes on ice and adding 100 μL of ice-cold methanol containing internal standards (^13C2, ^15N-acetaminophen for acetaminophen and N-deethylamodiaquine, and d9-1-hydroxybufuralol for 4-hydroxydiclofenac, 4-hydroxybupropion, 7-hydroxycoumarin, 4-hydroxymephenytoin, 1'-hydroxybufuralol, and 1'-hydroxymidazolam). The incubation mixtures were then centrifuged at 13,000 × g for 4 min. All incubations were performed in triplicate, and average values were used.
The reaction was initiated by the addition of the cocktail containing seven CYP probe substrates and bupropion.
The metabolites formed from the seven CYP cocktail substrates were simultaneously determined according to our previously described LC-MS/MS method with minor modification; the concentration of 4-hydroxybupropion for CYP2B6 activity was quantified separately by LC-MS/MS. A tandem mass spectrometer (TSQ Quantum Access, Thermo Scientific, San Jose, CA, USA) coupled with a Nanospace SI-2 LC system (Tokyo, Japan) was used. The column and autosampler temperatures were 50 °C and 6 °C, respectively. The mass spectrometer was equipped with an electrospray ionization (ESI) source and operated in positive ion mode. The ESI source settings for ionization of the metabolites were as follows: capillary voltage, 4200 V; vaporizer temperature, 350 °C; capillary temperature 330 °C; sheath gas pressure, 35 psi; auxiliary gas pressure, 15 psi. Quantification was performed by selected reaction monitoring (SRM) of [M+H]^+ ions and the related product ions for each metabolite. […] Analytical data were processed using Xcalibur® software (Thermo Scientific).
The incubation mixtures were centrifuged at 13,000 × g for 4 min, and the supernatants were diluted as follows: dilution of 20 μL supernatant with 180 μL of 25% methanol for CYP2C8; dilution of 50 μL supernatant with 50 μL of water for CYP2C9, CYP2C19, CYP2D6, and CYP1A2; and dilution of 20 μL supernatant with 80 μL of water for CYP2B6. Aliquots (5 μL) of the diluted supernatants were then analyzed by LC-MS/MS.
The apparent kinetic parameters for inhibitory potential (Ki values) were estimated from the fitted curves using Enzyme Kinetics Ver. 1.1 software (Systat Software Inc.).

IC50 (50 μM phenacetin (cocktail), pooled human liver microsomes (H161), read-out: IC50 (μM) of honokiol, no preincubation): 2.1 µM
pKi (10–80 μM phenacetin, pooled HLM (H161)): 5.92
IC50 (30 min preincubation in the presence of NADPH, pooled HLM (H161), read-out: IC50 (μM) of honokiol, with preincubation): 4.7 µM
Structure (SMILES): C=CCc1ccc(O)c(-c2ccc(O)c(CC=C)c2)c1 [honokiol, 2-(4-hydroxy-3-prop-2-enyl-phenyl)-4-prop-2-enyl-phenol]
Inhibition mode (pooled HLM (H161)): noncompetitively; also recorded: noncompetitive
